Experimental findings from patent publication US7576094B2, “Spiro derivatives as lipoxygenase inhibitors” (Eli Lilly and Company, priority 2004, dated 2009) are described below.

This assay has as its system dopaminergic neuronal cell line. Put plainly: High Glutamate-Induced Oxidative Stress Assay (HGOS). As to conditions: Mus musculus; 30 mM glutamate, 16 h, Cell Tracker Green; read-out: protection against HGOS cell injury and cell death with an EC50. The assay is classed as cell-based. The text has this:
Protection against redox stress can be evaluated in cell culture using high glutamate induced oxidative stress (HGOS) in mouse dopaminergic cell lines. The cytotoxic effect of glutamate is not due to excitotoxicity, as this cell line is devoid of inotropic glutamate receptors. Rather, the glutamate-induced toxicity of dopaminergic cells is associated with an inhibition of cystne transport which subsequently leads to depletion of intracellular glutathione (GSH) levels (Murphy T. H., et al. Neuron, Vol. 2 (1989), pp. 1547-1558), activation of neuronal 12-Lipoxygenase (Li, Y. et al. Neuron, Vol. 19 (1997), pp. 453-463), increased ROS production (Tan S. et al. J. Cell Biol., Vol. 141 (1998), pp. 1423-1432) and elevated intracellular Ca^2+ (Li, Y. et al. see supra). Some molecules were measured for their ability to protect cells against glutamate-induced stress and the assay is detailed in Examples.
This procedure was used to induce high glutamate-induced oxidative stress (HGOS) in a dopaminergic neuronal cell line. Using this assay the potency and efficacy of test articles against HGOS neuronal cell injury and cell death was established in a high throughput manner.
• Dopaminergic neuronal cell lines • DMEM-No Glucose (Life Technologies Cat # 11966-025) • L-glutamine (Life Technologies Cat # 25030-081) • L-glutamic acid, monosodium salt (Sigma Cat # G5889) • D-glucose (Sigma Cat # G-6151) • 10×HBSS buffer(pH 7.4) (950 mL Pyrogen-free water, 2.44 g/L MgCl2.6H20, 3.73 g/L KCl, 59.58 g/L Hepes, 58.44 g/L NaCI, 1.36 g/L KH2PO4, 1.91 g/L CaCl2.2H2O and pH to […] with HCl) • Cell Tracker Green fluorescent dye (Molecular Probes, Cat # 2925). Prepare a 5 μM solution in pre-warmed HBSS just prior to use. • Sterile 96-well plates pre-coated with poly-D-lysine (Corning Catalog # 3665) • 96-well deep well mother plate, DyNA Block 1000 (VWR Catalog # 40002-008) Neuronal Cells
The cells were seeded into 96-well plates at a density of 2000 per well and left to grow for 72 hours in a 33° C. incubator with 5% CO2 in air atmosphere. […]

For orientation: EC50 means the concentration at which the effect is half-maximal.

Some results are limits rather than exact numbers.

For the compound `Cc1c(C)c2c(c(C)c1O)C1(CCC1)CCS2` [5′,7′,8′-trimethyl-2′,3′-dihydrospiro[cyclobutane, 1,4′-thiochromen]-6′-ol], the half-maximal effective concentration (EC50) is less than 1 µM.
Then `Cc1c(C)c2c(c(C)c1O)CCC1(CC1)O2` [5,7,8-trimethyl-3,4-dihydrospiro[chromene-2,1′-cyclopropan]-6-ol], with less than 1 µM; and `Cc1c(C)c2c(c(Cl)c1O)CCC1(CCC1)O2` [5-chloro-7,8-dimethyl-3,4-dihydrospiro[chromene-2,1′-cyclobutan]-6-ol], with less than 1 µM.
